Assay results from patent US20030180797A1, “Identification of ligands for a receptor family and related methods” (priority 2002, published 2003).
Where “and” joins values, the source holds several entries; their conditions need not be identical. Equal entries are not always repeated.

Key:
Type in all cases: biochemical
[1] = molecular target: T1, E. coli DHPR enzyme (Escherichia coli, UniProt P04036); experiment: Dihydrodipicolinate reductase (DHPR) kinetic spectrophotometric assay, NADPH oxidation at 340 nm; details: for IC50: bi-ligands and pyridine dicarboxylate derivatives, Example VII, FIG. 8
T1 sequence (P04036 whole entry): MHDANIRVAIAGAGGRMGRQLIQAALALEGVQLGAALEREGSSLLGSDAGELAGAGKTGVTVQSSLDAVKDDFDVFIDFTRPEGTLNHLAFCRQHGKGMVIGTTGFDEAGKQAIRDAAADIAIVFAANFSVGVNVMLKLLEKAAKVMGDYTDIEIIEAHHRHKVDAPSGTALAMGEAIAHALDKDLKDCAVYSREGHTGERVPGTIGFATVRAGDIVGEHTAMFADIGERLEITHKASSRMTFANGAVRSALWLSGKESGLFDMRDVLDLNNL
Method: DHPR was diluted in 10 mM HEPES, pH 7.4. Dihydrodipicolinate synthase (DHPS) was not diluted and was stored in eppendorf tubes.
The L-aspartate semialdehyde (L-ASA) solution was prepared in the following manner. A 180 μM stock solution of ASA was prepared. 100 μl of the ASA stock solution was mixed with 150 μl of concentrated NaHCO3 and 375 μl of H2O. […] The L-ASA stock solution was kept at a temperature of −20° C. After dilution, the pH of the 28.8 mM solution was checked and maintained between pH 1 to 2.
The solution for background detection was a 945 μl solution containing 0.1 M HEPES, pH 7.8, 1 mM pyruvate, 6 μM NADPH, 40 μM L-ASA, and 7 μl of 1 mg/ml DHPS at 25° C. in the volumes indicated above. The sample solution was then mixed and incubated for 10 minutes. Inhibitor solutions (500 nM or 100 μM final concentration) and enough dimethylsulfoxide (DMSO) to provide a final DMSO concentration of 5% were added. The solution was mixed and incubated for an additional 6 minutes.
In DHPR samples, the DHPR stock solution was diluted and 5 μl of diluted E. coli DHPR enzyme (1:1000 dilution of 1 mg/ml stock) were added. The sample was mixed for 20 seconds, and then the reaction was run for […]. […] Reading of the samples was continued until 300 seconds.
For assaying bi-ligands, the substrate concentration and the NADPH or NADH concentration were kept near their Km values. […] If substrate mimics (specificity ligands) were tested, the NADPH or NADH concentration was increased.

[2] = molecular target: T2, LDH from Rabbit Muscle (Oryctolagus cuniculus, UniProt P13491); experiment: Lactate dehydrogenase (LDH) kinetic spectrophotometric assay, NADH oxidation; details: Cibacron Blue at 10.3 mM; read-out: inhibition of LDH, positive control
T2 construct: 10 μl of diluted LDH from Rabbit Muscle; from tissue; host or cells: rabbit muscle
Method: [table] […] These solutions were incubated for 6 minutes at 25° C. in 990 μl of a solution containing 0.1 M HEPES, pH 7.4, […], and 2.5 mM of pyruvate. The reaction was then initiated with 10 μl of diluted LDH from Rabbit Muscle (0.5 μg/ml; 1:2000 dilution of 1.0 mg/ml stock solution). […] Reading of the samples was continued until 300 seconds. […] When bi-ligands were screened, the substrate concentration and NADPH or NADH concentrations were kept near their Km values. […] If the compounds assayed were specificity ligands (substrate mimics), the NAPDH or NADH concentration was increased.

[3] = molecular target: DOXP reductoisomerase from E. coli (Escherichia coli, UniProt P45568); experiment: 1-Deoxy-D-xylulose-5-phosphate reductoisomerase (DOXPR) kinetic spectrophotometric assay, NADPH oxidation; details: Cibacron Blue at 10.32 μM; read-out: inhibition of DOXPR, positive control
Chain of DOXP reductoisomerase from E. coli (P45568 whole entry): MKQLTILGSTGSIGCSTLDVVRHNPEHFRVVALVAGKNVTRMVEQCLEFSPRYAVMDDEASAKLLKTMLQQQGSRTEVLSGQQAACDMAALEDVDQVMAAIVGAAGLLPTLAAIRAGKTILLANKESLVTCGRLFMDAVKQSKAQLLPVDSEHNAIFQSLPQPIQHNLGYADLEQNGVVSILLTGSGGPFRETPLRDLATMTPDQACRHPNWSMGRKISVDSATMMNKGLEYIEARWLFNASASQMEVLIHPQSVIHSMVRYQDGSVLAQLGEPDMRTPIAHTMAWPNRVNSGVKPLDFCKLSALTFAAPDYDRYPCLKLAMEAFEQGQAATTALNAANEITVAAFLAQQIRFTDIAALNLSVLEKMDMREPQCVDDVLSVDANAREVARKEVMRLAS
Method: DOXPR was diluted in 10 mM HEPES, pH 7.4.
Solutions of the inhibitors in DMSO were prepared to provide a final DMSO concentration of 5%. […] 1.15 mM DOXP, and 8 μM NADPH. The reaction was then initiated with 10 μl of DOXP reductoisomerase (also known as DOXP reductase) from E. coli (10 μg/ml; 1:200 diilution of 2 mg/ml stock solution).
(§1) When bi-ligands were screened, the substrate concentration and NADPH or NADH concentrations were kept near their Km values. When assaying common ligands (CLMs), the substrate concentration was increased to at least 10 times the Km. If the compounds assayed were specificity ligands (substrate mimics), the NAPDH or NADH concentration was increased.

[4] = molecular target: T3, ADH from Bakers Yeast (Saccharomyces cerevisiae, UniProt P00330); experiment: Alcohol dehydrogenase (ADH) kinetic spectrophotometric assay, NAD+ reduction; details: Cibacron Blue at 15.5 μM; read-out: inhibition of ADH, positive control
T3 sequence (P00330 1-348): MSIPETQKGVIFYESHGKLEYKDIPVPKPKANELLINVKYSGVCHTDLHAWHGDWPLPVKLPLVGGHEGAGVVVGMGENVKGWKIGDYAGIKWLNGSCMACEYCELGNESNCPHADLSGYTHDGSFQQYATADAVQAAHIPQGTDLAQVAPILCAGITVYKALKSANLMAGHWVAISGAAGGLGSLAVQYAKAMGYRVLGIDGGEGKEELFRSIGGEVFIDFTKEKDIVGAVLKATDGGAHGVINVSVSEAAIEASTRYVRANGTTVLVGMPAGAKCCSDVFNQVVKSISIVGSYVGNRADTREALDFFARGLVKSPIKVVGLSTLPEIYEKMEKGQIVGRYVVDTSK
Method: Inhibitor solutions were prepared in DMSO so that, when diluted, the inhibitor concentration was 100 μM and the final DMSO concentration was adjusted to 5%. […] The reaction was then initiated with 10 μl of ADH from Bakers Yeast (Saccharomyces cerevisiae) (3.3 μg/ml; 1:400 dilution of 1.0 mg/ml). […] Reading of the samples was continued until 300 seconds.
Where only a simple read was desired, as in the case of NAD+ concentration determination, 13 μl (10 M stock) of ethanol was used to drive the reaction, and 10 μl of pure enzyme (1 mg/ml) was used. NAD+ was soluble at 2 mM. In this situation, the procedure was as follows. All of the ingredients except for the enzyme were mixed together. The solution was mixed well and the absorbance at 340 nm read. The enzyme was added and read again at OD 340 after the absorbance stopped changing, generally 10 to 15 minutes after the enzyme was added.

[5] = molecular target: T4, human DHFR (Homo sapiens, UniProt P00374); experiment: Dihydrofolate reductase (DHFR) kinetic spectrophotometric assay; details: Cibacron Blue at 3 μM; read-out: inhibition of DHFR, positive control
T4 sequence (P00374 1-187): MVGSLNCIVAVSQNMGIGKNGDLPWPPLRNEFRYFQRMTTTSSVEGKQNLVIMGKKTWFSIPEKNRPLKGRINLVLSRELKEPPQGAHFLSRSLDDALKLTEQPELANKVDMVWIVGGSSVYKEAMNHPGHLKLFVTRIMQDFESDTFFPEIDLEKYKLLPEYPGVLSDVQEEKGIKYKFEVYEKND
Method: H2 folate was dissolved in DMSO to about 10 mM and then diluted with water to a concentration of 0.1 mM.
Inhibitor solutions were prepared in DMSO so that, when diluted, the inhibitor concentration was 100 μM and the final DMSO concentration was adjusted to 5%. […] The reaction was then initiated with 8 μl of human DHFR (0.047 mg/ml; 1:85 dilution of 4 mg/ml stock solution). After the enzyme was added, the reaction was run for 10 minutes.
as §1

[6] = molecular target: T1, E. coli DHPR enzyme; experiment: Dihydrodipicolinate reductase (DHPR) kinetic spectrophotometric assay, NADPH oxidation at 340 nm; details: read-out: inhibition of DHPR activity

SMILES	IC50 [1]	further results
N=C1NC(=O)C(=Cc2ccc(C(=O)NCCSc3cc(C(=O)O)nc(C(=O)O)c3)cc2)S1 [compound 16c, 4-{2-[4-(2-imino-4-oxo-thiazolidin-5-ylidenemethyl)-benzoylamino]-ethylsulfanyl}-pyridine-2,6-dicarboxylic acid]	~33 µM	
O=C(NCCSc1cc(C(=O)O)nc(C(=O)O)c1)c1ccccc1 [compound 23, 4-(2-benzoylamino-ethylsulfanyl)-pyridine-2,6-dicarboxylic acid]	78.3 µM	
O=C1NC(=S)SC1=Cc1ccc(-c2cccc(C(=O)NCCSc3cc(C(=O)O)nc(C(=O)O)c3)c2)o1 [compound 12d, 4-(2-{3-[5-(4-oxo-2-thioxo-thiazolidin-5-ylidenemethyl)-furan-2-yl]-benzoylamino}-ethylsulfanyl)-pyridine-2,6-dicarboxylic acid]	~0.254 µM	
Nc1c(S(=O)(=O)O)cc(Nc2ccc(Nc3nc(Cl)nc(Nc4ccccc4S(=O)(=O)O)n3)c(S(=O)(=O)O)c2)c2c1C(=O)c1ccccc1C2=O [Cibacron Blue]		inhibition at 2580 µM ([1]; read-out: inhibition of DHPR, positive control): 70 to 80%; inhibition at 10300 µM [2]: 50 to 70%; inhibition at 10.32 µM [3]: 70 to 80%; inhibition at 15.5 µM [4]: 50 to 60%; inhibition at 3 µM [5]: 50 to 70%
CC(=O)NCCSc1cc(C(=O)O)nc(C(=O)O)c1 [compound 22, 4-(2-acetylamino-ethylsulfanyl)-pyridine-2,6-dicarboxylic acid]		inhibition at 800 µM [6]: ~31%
N=C1NC(=O)C(=Cc2ccc(O)c(C(=O)NCCSc3cc(C(=O)O)nc(C(=O)O)c3)c2)S1 [compound 16a, 4-{2-[2-hydroxy-5-(2-imino-4-oxo-thiazolidin-5-ylidenemethyl)-benzoylamino]-ethylsulfanyl}-pyridine-2,6-dicarboxylic acid]	~8.2 µM and ~15.5 µM	
N=C1NC(=O)C(=Cc2cccc(C(=O)NCCSc3cc(C(=O)O)nc(C(=O)O)c3)c2)S1 [compound 16b, 4-{2-[3-(2-imino-4-oxo-thiazolidin-5-ylidenemethyl)-benzoylamino]-ethylsulfanyl}-pyridine-2,6-dicarboxylic acid]	~1.02 µM	
O=C1NC(=O)C(=Cc2ccc(-c3cccc(C(=O)NCCSc4cc(C(=O)O)nc(C(=O)O)c4)c3)o2)S1 [compound 12c, 4-(2-{3-[5-(2,4-dioxo-thiazolidin-5-ylidenemethyl)-furan-2-yl]-benzoylamino}-ethylsulfanyl)-pyridine-2,6-dicarboxylic acid]	~13 µM	
O=C1NC(=O)C(=Cc2ccc(-c3ccc(O)c(C(=O)NCCSc4cc(C(=O)O)nc(C(=O)O)c4)c3)o2)S1 [compound 12f, 4-(2-{5-[5-(2,4-dioxo-thiazolidin-5-ylidenemethyl)-furan-2-yl]-2-hydroxy-benzoylamino}-ethylsulfanyl)-pyridine-2,6-dicarboxylic acid]	~4.91 µM	
O=C(O)c1cc(SCCNC(=O)c2cc3cccc(O)c3cc2O)cc(C(=O)O)n1 [compound 24, 4-{2-[(3,5-dihydroxy-naphthalene-2-carbonyl)-amino]-ethylsulfanyl}-pyridine-2,6-dicarboxylic acid]	2 µM	
O=C1NC(=O)C(=Cc2ccc(-c3ccc(C(=O)NCCSc4cc(C(=O)O)nc(C(=O)O)c4)cc3)o2)S1 [compound 12a, 4-(2-{4-[5-(2,4-dioxo-thiazolidin-5-ylidenemethyl)-furan-2-yl]-benzoylamino}-ethylsufanyl)-pyridine-2,6-dicarboxylic acid]	~0.536 µM	
O=C(NCCSc1cc(C(=O)O)nc(C(=O)O)c1)c1ccc(-c2ccc(-c3nc4cc([N+](=O)[O-])ccc4[nH]3)o2)cc1 [compound 21a, 4-(2-{4-[5-(5-nitro-1H-benzoimidazol-2-yl)-furan-2-yl]-benzoylamino}-ethylsulfanyl)-pyridine-2,6-dicarboxylic acid]	~0.758 µM	
O=C1NC(=S)SC1=Cc1ccc(-c2ccc(C(=O)NCCSc3cc(C(=O)O)nc(C(=O)O)c3)cc2)o1 [compound 12b, 4-(2-{4-[5-(4-oxo-2-thioxo-thiazolidin-5-ylidenemethyl)-furan-2-yl]-benzoylamino}-ethylsulfanyl)-pyridine-2,6-dicarboxylic acid]	~7.1 µM	
